Measurements taken from patent publication US11561217B2, “Compounds inhibiting Nef-calnexin interaction” (The George Washington University, a Congressionally …, priority 2016, dated 2023).
“Also recorded” adds a separate entry of the source.

Key:
[1] = target: T1, Nef/CNX interaction (Human immunodeficiency virus type 1 group M subtype B, UniProt P03406); assay: Co-immunoprecipitation of Nef and calnexin in transfected HEK293T cells; format: cell-based, HIV-1; conditions: for inhibition of co-immunoprecipitation of Nef and calnexin: added 6 h post-transfection, lysed 48 h post-transfection, HEK293T
T1 construct: expressed in transfected cells; host or cells: HEK293T
Description: (§1) To test whether the compounds identified in the virtual screen can interfere with Nef/CNX interaction, a co-immunoprecipitation assay was performed. HEK293T cells were transfected with plasmid encoding for NefBRU and 6 h post-transfection were treated with NSC 1758 (4 μM), NSC 13987 (5 μM), or NSC 92938 (5 μM). These concentrations of the compounds were determined by the MTT assay to reduce cell metabolism by less than 10% during 5-day incubation (FIG. 6C). […] It was previously shown that membrane localization of Nef is important for interaction of Nef with calnexin (5). In order to rule out the possibility that the compound interferes with membrane localization of Nef, it was tested whether NSC 13987 affects interaction between Nef and ABCA1, as ABCA1/Nef interaction also requires membrane localization of Nef (1).
Their overall location in the structural alignment with the model of Nef-CNX complex is shown as translucent molecular surface. […] The set of compounds includes NSC 1758, NSC 13987, and NSC 92938 selected for experimental testing. b, Compound NSC 13987 docked to Nef binding site, which is centered on Lys4 and Lys7. Interactions of the compound with Nef include two hydrogen bonds with Nef amino acid residues Ser6 and Tyr124. […] THP-1 cells were treated with indicated compounds for 5 days and cytotoxicity was measured using MTT assay. In panel (D), HEK 293T cells were transfected with HA-tagged Nef, treated with compounds NSC 1758, NSC 13987 or NSC 92938, and lysed. Nef was immunoprecipitated using anti-HA agarose beads and bound complexes were immunoblotted for Nef and calnexin (left panels labeled IP: aIIA). Densitometric quantification of calnexin co-immunoprecipitation with Nef is presented in the right panel. Error bars indicate +/−SD of 3 independent experiments, and p values are shown above the bars. Whole cell lysates were analyzed for amount of calnexin, Nef and GAPDH (left panels labeled Lysate). In panel (E), HEK293T cells were co-transfected with ABCA1-FLAG and NefBRU and treated with compound NSC 13987. Cells were lysed 48 h post-transfection and ABCA1-FLAG was immunoprecipitated using anti-FLAG beads. Precipitated complexes were blotted for ABCA1 and Nef (top panels). Input amount was analyzed from whole cell lysates by immunoblotting for ABCA1, Nef and GAPDH (bottom panels).
Immunoprecipitation—For calnexin mutant/Nef interaction analysis, HEK293T cells were transfected with HA-tagged calnexin mutants and NefBRU expression plasmid. Cells were lysed 48 h post-transfection with 1% IGEPAL and 0.1% SDS lysis buffer on ice for 30 min. Lysates were incubated with anti-HA agarose beads for 2 h at 4° C. with rotation. Respective immunoprecipitates were washed three times with TBS (150 mM NaCl, 30 mM Tris-HCl, 5 mM EDTA, pH 7.5). […]

[2] = target: T2, ABCA1/Nef interaction (Human immunodeficiency virus type 1 group M subtype B, UniProt P03406); assay: Co-immunoprecipitation of ABCA1-FLAG and Nef in HEK293T cells; format: cell-based, HIV-1; conditions: HEK293T co-transfected with ABCA1-FLAG and NefBRU, lysed 48 h post-transfection
T2 construct: expressed in transfected cells; host or cells: HEK293T
T2 sequence (O95477 whole entry, other chains not shown): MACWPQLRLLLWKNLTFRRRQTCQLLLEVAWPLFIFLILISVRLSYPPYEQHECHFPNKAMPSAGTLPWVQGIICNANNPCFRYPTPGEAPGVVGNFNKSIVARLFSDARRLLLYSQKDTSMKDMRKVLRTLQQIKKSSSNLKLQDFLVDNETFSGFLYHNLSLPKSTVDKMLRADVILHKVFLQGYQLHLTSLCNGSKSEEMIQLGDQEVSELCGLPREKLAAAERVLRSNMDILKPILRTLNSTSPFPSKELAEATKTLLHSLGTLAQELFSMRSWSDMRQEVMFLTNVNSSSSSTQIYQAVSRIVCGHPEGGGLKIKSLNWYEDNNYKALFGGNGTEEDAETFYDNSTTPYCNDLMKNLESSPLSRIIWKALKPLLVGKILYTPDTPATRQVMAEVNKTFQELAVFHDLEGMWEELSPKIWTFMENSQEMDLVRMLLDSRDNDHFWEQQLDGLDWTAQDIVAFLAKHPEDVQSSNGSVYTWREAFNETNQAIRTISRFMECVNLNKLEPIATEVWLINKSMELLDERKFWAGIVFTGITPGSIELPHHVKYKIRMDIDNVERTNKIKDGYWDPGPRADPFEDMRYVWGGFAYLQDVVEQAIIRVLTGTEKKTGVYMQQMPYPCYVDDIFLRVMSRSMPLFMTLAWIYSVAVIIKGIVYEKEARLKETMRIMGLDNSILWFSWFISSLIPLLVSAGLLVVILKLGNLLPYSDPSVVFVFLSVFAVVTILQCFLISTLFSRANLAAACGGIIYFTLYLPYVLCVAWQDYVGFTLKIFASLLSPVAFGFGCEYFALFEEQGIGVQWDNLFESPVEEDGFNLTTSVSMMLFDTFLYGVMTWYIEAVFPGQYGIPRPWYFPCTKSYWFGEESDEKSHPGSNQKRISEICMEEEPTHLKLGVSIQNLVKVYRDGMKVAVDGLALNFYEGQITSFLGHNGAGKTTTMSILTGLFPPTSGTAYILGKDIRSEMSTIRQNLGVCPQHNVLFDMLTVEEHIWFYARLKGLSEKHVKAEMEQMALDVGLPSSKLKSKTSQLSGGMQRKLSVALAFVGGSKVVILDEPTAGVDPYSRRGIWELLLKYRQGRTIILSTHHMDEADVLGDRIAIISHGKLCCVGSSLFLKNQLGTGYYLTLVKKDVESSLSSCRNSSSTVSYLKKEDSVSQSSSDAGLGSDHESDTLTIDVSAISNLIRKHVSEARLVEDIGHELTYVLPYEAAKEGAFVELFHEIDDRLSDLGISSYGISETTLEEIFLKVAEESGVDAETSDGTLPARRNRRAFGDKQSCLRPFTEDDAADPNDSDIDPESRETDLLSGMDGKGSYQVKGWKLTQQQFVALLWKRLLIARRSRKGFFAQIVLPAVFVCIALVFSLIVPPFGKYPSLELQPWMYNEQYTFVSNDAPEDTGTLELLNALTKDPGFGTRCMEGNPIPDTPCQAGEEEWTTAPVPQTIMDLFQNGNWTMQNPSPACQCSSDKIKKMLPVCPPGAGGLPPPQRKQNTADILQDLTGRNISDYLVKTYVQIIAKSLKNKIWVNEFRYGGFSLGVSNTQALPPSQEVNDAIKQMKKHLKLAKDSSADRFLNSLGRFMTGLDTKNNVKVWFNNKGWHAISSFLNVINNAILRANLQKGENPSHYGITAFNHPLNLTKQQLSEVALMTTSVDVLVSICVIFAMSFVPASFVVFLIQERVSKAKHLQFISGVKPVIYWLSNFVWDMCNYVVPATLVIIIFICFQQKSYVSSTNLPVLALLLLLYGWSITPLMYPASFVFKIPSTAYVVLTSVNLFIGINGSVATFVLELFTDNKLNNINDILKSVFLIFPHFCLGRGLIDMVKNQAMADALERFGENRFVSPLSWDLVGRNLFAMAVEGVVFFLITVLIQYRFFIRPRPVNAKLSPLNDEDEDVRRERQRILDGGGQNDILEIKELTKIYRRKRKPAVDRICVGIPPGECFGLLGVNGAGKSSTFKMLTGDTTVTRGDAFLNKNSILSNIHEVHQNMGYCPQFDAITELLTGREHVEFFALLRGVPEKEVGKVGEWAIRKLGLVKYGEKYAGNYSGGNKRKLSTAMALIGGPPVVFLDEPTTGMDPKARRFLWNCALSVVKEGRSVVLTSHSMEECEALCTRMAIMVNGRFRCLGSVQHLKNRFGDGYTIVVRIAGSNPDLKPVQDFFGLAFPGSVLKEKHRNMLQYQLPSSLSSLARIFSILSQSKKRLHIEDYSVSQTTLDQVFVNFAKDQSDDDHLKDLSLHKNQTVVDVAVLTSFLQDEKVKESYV
Description: as §1
Their overall location in the structural alignment with the model of Nef-CNX complex is shown as translucent molecular surface. […] THP-1 cells were treated with indicated compounds for 5 days and cytotoxicity was measured using MTT assay. […] Densitometric quantification of calnexin co-immunoprecipitation with Nef is presented in the right panel. […] Whole cell lysates were analyzed for amount of calnexin, Nef and GAPDH (left panels labeled Lysate). […] Input amount was analyzed from whole cell lysates by immunoblotting for ABCA1, Nef and GAPDH (bottom panels).

[3] = tested on: THP-1 cells transfected with Nef; assay: apoA-I specific cholesterol efflux in Nef-transfected THP-1 cells; format: cell-based; conditions: THP-1, PMA-activated, compared to DMSO-treated Nef expressing cells
Description: Next, it was tested whether the three compounds could prevent impairment of cholesterol efflux by Nef. THP-1 cells were transfected with a Nef encoding plasmid and drug treatment was started 6 h after transfection. The following day cells were activated with PMA after which cholesterol efflux assay was performed. Drug treatment was continued throughout the duration of the experiment. […] Cholesterol efflux in Nef-transfected untreated or DMSO-treated cells was reduced by over 2-fold relative to mock-transfected cells.
Specifically, in panel (A) THP-1 cells were transfected with Nef and incubated with compounds NSC 1758, NSC 13987 and NSC 92938 or DMSO, and cholesterol efflux was measured 5 days post-transfection. Error bars show SEM. In panel (B) primary macrophages were infected in triplicate with HIV-1 ADA. Compound NSC 13987 (5 μM) or DMSO was added 3 days after infection and maintained thereafter, and virus replication was monitored by measuring RT-activity in the supernatant over a 14-day period. […] In panel (C) primary macrophages were infected with HIV-1 ADA or mock-infected and treated with DMSO or NSC13987 as in panel B. Cholesterol efflux was measured 14 days post-infection. […]
(§2) Cholesterol Efflux—Infected cells were seeded in a 24-well plate and labeled with [^3H] cholesterol for 48 h. […] Level of radioactivity in the media as well as in the cells was determined by scintillation counting. […]

[4] = tested on: HIV-1 ADA; assay: HIV-1 ADA replication in monocyte-derived macrophages (RT activity in supernatant); format: cell-based
Description: (§3) To test the effect of NSC 13987 in the context of natural infection, monocyte-derived macrophages (MDM) were infected with HIV-1 ADA, treated with NSC 13987 and cholesterol efflux was measured.
(§4) Specifically, in panel (A) THP-1 cells were transfected with Nef and incubated with compounds NSC 1758, NSC 13987 and NSC 92938 or DMSO, and cholesterol efflux was measured 5 days post-transfection. Error bars show SEM. In panel (B) primary macrophages were infected in triplicate with HIV-1 ADA. Compound NSC 13987 (5 μM) or DMSO was added 3 days after infection and maintained thereafter, and virus replication was monitored by measuring RT-activity in the supernatant over a 14-day period. Results of 3 measurements are shown as mean ±SEM. *, p<0.005; **, p<0.007. In panel (C) primary macrophages were infected with HIV-1 ADA or mock-infected and treated with DMSO or NSC13987 as in panel B. Cholesterol efflux was measured 14 days post-infection. Error bars show SEM.

[5] = tested on: monocyte-derived macrophages (MDM) infected with HIV-1 ADA; assay: Cholesterol efflux from HIV-1 ADA infected monocyte-derived macrophages; format: cell-based; conditions: 14 days post-infection, versus mock-infected cells
Description: as §3, §4
as §2, with “counting. Cholesterol efflux was calculated as the percentage of radioactivity in the media divided by the total amount measured in the cells and media.” for “counting.”

[6] = tested on: ABCA1; assay: ABCA1 abundance in the presence of Nef; format: cell-based
[7] = target: T3, calnexin (CNX) (Homo sapiens, UniProt P27824); assay: Surface plasmon resonance, immobilized full-length calnexin; format: binding; conditions: myristoylated Nef injected at 6.25-200 nM, 25° C.
T3 construct: Full length CNX and the C-terminal (cytoplasmic) domain of CNX (CNX-CT) were captured on CMS chips by amine coupling; His-tag (H8) (N); made in house; host or cells: E. coli BL21 DE
T3 sequence (P27824 21-592): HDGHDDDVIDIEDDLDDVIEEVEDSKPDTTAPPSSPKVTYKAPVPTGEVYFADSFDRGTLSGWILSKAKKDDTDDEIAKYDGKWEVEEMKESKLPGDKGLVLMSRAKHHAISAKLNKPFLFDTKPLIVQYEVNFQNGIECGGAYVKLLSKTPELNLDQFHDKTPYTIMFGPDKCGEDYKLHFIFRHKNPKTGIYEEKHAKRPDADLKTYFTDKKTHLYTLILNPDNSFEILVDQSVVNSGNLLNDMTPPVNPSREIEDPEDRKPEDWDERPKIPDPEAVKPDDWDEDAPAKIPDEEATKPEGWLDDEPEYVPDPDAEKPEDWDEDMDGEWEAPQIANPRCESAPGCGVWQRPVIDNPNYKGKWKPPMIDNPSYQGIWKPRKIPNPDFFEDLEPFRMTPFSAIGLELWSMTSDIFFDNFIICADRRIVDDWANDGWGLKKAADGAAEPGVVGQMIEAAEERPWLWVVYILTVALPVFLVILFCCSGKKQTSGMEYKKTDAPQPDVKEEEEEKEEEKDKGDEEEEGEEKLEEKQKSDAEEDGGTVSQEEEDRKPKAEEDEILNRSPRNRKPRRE
Description: (§5) Binding of myristoylated NefsF2 (33) to CNX and its cytoplasmic domain was analyzed using surface plasmon resonance (FIGS. 5B,C). CNX and CNX-CT were immobilized on microchip surfaces and myristoylated Nef was injected over the surface.
Steps of full-length CL7-tagged calnexin (CNX-CL7) purification are shown in detail. Whole cell lysate (WCL) was centrifuged to remove cell debris, the supernatant (SN) was treated with 0.07% polyethylene-emine (PE) to precipitate DNA, the pellet (PL), which contained most of CNX protein, was washed with detergent-containing buffer to release CNX into solution, centrifuged and the resulting supernatant was loaded on Immunity protein 7 (Im7) column. […] ACNX—truncated CNX fragment; SUMO—SUMO domain; P(PSC), P(SUMOP)—cleavage sites for the PSC and SUMO proteases, respectively; H8—8-Histidine tag (SEQ ID NO: 2). In panels (B) and (C), surface plasmon resonance experiments were done in a Biacore T-200 by using a CMS chip. […]
Surface Plasmon Resonance Experiments—Direct binding between purified recombinant proteins was evaluated by surface plasmon resonance technology utilizing a Biacore T-200 instrument at the Biacore Molecular Interaction Shared Resource of Georgetown University. […] The data was analyzed by BiaEvaluation software using the bivalent analyte model.

[8] = target: T4, cytoplasmic tail of CNX (CNX-CT) (Homo sapiens, UniProt P27824); assay: Surface plasmon resonance, immobilized calnexin cytoplasmic tail; format: binding; conditions: myristoylated Nef injected at 6.25-200 nM, 25° C.
T4 construct: the C-terminal (cytoplasmic) domain of CNX (CNX-CT) were captured on CMS chips by amine coupling; His-tag (N); SUMO domain (N); made in house; host or cells: E. coli BL21 DE
T4 sequence (P27824 503-592 limits assumed): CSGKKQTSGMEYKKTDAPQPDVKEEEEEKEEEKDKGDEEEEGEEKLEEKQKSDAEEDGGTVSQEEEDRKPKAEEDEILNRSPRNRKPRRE
Description: as §5
Steps of full-length CL7-tagged calnexin (CNX-CL7) purification are shown in detail. Whole cell lysate (WCL) was centrifuged to remove cell debris, the supernatant (SN) was treated with 0.07% polyethylene-emine (PE) to precipitate DNA, the pellet (PL), which contained most of CNX protein, was washed with detergent-containing buffer to release CNX into solution, centrifuged and the resulting supernatant was loaded on Immunity protein 7 (Im7) column. […] ACNX—truncated CNX fragment; SUMO—SUMO domain; P(PSC), P(SUMOP)—cleavage sites for the PSC and SUMO proteases, respectively; H8—8-Histidine tag (SEQ ID NO: 2). In panels (B) and (C), surface plasmon resonance experiments were done in a Biacore T-200 by using a CMS chip. […] Lines representing actual data and a curve fit to a […] analyte binding model in BiaEvaluation software are shown.
Surface Plasmon Resonance Experiments—Direct binding between purified recombinant proteins was evaluated by surface plasmon resonance technology utilizing a Biacore T-200 instrument at the Biacore Molecular Interaction Shared Resource of Georgetown University. Full length CNX and the C-terminal (cytoplasmic) domain of CNX (CNX-CT) were captured on CMS chips by amine coupling. Three surfaces of CM5 chip were activated by NHS/CDC (N-hydroxysuccinimide/1-ethyl-3-(3-dimethylaminopropyl)carbodiimide hydrochloride) for 720 sec. Flow cell 1 was left empty as a reference surface. Full length CNX and CNX-CT were diluted in 10 mM sodium acetate (pH 4.0) buffer at 1.8 μM and 10.6 μM, respectively, and captured on flow cell 3 and flow cell 2, at 3200 RU and 16600 RU, respectively. After protein capture, all 3 flow cells were inactivated by 720 sec injection of 1 M ethanolamine. […] The data was analyzed by BiaEvaluation software using the bivalent analyte model.

## N=C(Nc1cc2ccccc2c2ccccc12)Nc1cc2ccccc2c2ccccc12 [NSC 1758, 1,3-DI-9-Phenanthrylguanidine]
[1]; 4 μM
  inhibition of co-immunoprecipitation of Nef and calnexin: showed a trend towards inhibiting Nef/CNX binding but did not reach statistical significance

## O=C1c2ccccc2C(=O)c2c(Nc3ccc4c5c(cccc35)C(=O)c3ccccc3-4)cccc21 [NSC 13987, 1[(7-Oxo-7H-benz[de]anthracene-3-yl)amino] anthraquinone]
[1]; 5 μM
  inhibition of co-immunoprecipitation of Nef and calnexin: prevented co-precipitation of CNX with Nef
[1]; HEK-293T, read-out: inhibition of co-immunoprecipitation of Nef and calnexin
  inhibition at 5 µM: > 50%
[2]
  effect on ABCA1/Nef interaction: remained unaffected
[3]
  cholesterol efflux in Nef-transfected cells: significantly increased; also recorded: restored cholesterol efflux impaired by Nef
[4]; 5 μM added 3 days after infection, RT activity over 14 days, primary macrophages
  viral replication in the presence of the compound: reduced
[4]; FIG. 7B, HIV-1 ADA in primary macrophages, 5 μM
  inhibition of viral replication: ~2 fold
[5]
  cholesterol efflux from HIV-infected cells: not significantly different from that of mock-infected cells
[6]
  Nef-mediated effect on ABCA1 abundance: reversed Nef-mediated effect on ABCA1 abundance

## O=C1c2ccccc2C(=O)c2c1ccc1c2[nH]c2ccccc21 [NSC 92938, 5H-Naphtho(2,3-a)carbazole-5,13(12H)-dione]
[1]; 5 μM
  inhibition of co-immunoprecipitation of Nef and calnexin: showed a trend towards inhibiting Nef/CNX binding but did not reach statistical significance

## NefSF2: myristoylated HIV-1 Nef SF2 protein injected over immobilized calnexin in surface plasmon resonance
[7]
  ka: 133800 M⁻¹ s⁻¹
  kd: 0.01192 s⁻¹
[8]
  ka: 908300 M⁻¹ s⁻¹
  kd: 0.008569 s⁻¹
[8]; Biacore T-200, read-out: affinity (KD)
  Kd: 9.4 nM
